Data reported in article PMC8808171, “Nonselective TRPC channel inhibition and suppression of aminoglycoside-induced premature termination codon readthrough by the small molecule AC1903” (The Journal of Biological Chemistry, 2022).
“Also recorded” adds a separate entry of the source.

Legend:
A498 cells = assay: EA-mediated A498 cytotoxicity (WST-1 cell viability assay); assay type: cell-based; settings: AC1903 100 μM; 100 nM EA; 8 h
Description: Cell viability assays were carried out using WST-1 Cell Proliferation Reagent (Merck). A498 cells were plated onto clear 96-well plates at 4000 cells per well and left to adhere for 24 h. Media was then removed, and replaced with fresh media containing 100 nM EA, in presence of either DMSO or 0.1 to 100 μM AC1903. Control wells were treated with vehicle (DMSO) only. To exclude any potential cytotoxic effects of AC1903 itself, cells were incubated with 0.1 to 100 μM AC1903 in absence of EA. Cells were treated in triplicate. Cells were incubated with compounds for 8 h. After 8 h, treatment media was removed and media containing WST-1 reagent (10 μl reagent +100 μl media per well) was added to each well and incubated for 1.5 h at 37 °C. Blank wells contained media and WST-1 reagent (no cells). […] Absorbance was then read at 440 nm and 650 nm (reference wavelength). To analyze data, the value of the 650 nm was subtracted from that of the 440 nm reading. Values across triplicate wells were averaged, and the value from the blank wells subtracted to account for background absorbance. […]
Inhibition of G418-induced premature stop codon readthrough
A498 cytotoxicity . […] Cell viability was calculated as % of control, and the effect of AC1903 was compared to control (0 µM ) (scatter plots showing data from three independent experiments; bars represent mean ± SD; n = 3). […]

DMS-114 cells = assay: Measurement of intracellular G418 (gentamicin ELISA) in DMS-114 cells; assay type: cell-based, human; settings: 150 μM AC1903 (Fig. 2D)
Description: Figure 2 Effect of AC1903 on PTC readthrough and G418 trafficking.A and B, DMS-114 (A) or TC-71 (B) cells were pretreated with indicated concentrations of AC1903 for 3 h followed by exposure to 400 μg/ml G418. After 3 h medium was replenished and at 24 h cell lysates were prepared and p53 levels were measured. C and E, DMS-114 (C) or JEB01 (E) cells were either left untreated or pretreated with 150 μM AC1903 for 3 h followed by exposure to indicated concentrations of G418 for another 3 h. At 24 h cell lysates were prepared and p53 (C) or Collagen XVII (E) levels were measured. In panels A–C, protein levels were measured by automated capillary electrophoresis Western analysis (using vinculin as loading control). In panel E, protein levels were measured by Western blot (using beta-actin as loading control). […] D, total intracellular levels of G418 were measured in the same lysates as in (C) (n = 5; data normalized to the highest response in each experiment; bars represent mean ± SD). F, total intracellular levels of G418 were measured in the same lysates as in (E) (n = 2; data normalized to the highest response in each experiment; bars represent mean ± SD). ∗ indicates statistically significant difference between samples according to one-way ANOVA (p < 0.05). […]

For c1ccc(Cn2c(NCc3ccco3)nc3ccccc32)cc1 [AC1903], the “effect on EA-mediated A498 cytotoxicity” value (A498 cells) was “inhibits EA-mediated; also recorded: inhibited EA-mediated A498 cytotoxicity” and the “intracellular G418 levels in the presence of AC1903” value (DMS-114 cells) was “significantly decreased”.
